This experiment concerns the target human wild type-CFTR (Homo sapiens, UniProt P13569). The experiment is described as follows: Cell-based YFP assay. Set-up: expressed in transfected cells; host or cells: CHO-K1 (Chinese hamster ovary). The note with it: CHO-K1 cells expressing human wild type-CFTR and YFP-H148Q/I152L; forskolin 20 μM = 100% activity; read-out: Cell-based YFP Assay (EC50) Concentration Range. In a few lines:
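CHO-K1 cells co-expressing human wild-type CFTR and YFP-H148Q/I152L halide sensor, grown 48 h at 37 °C, then in PBS. YFP quenching by I⁻ influx read at 37 °C after adding 140 mM I⁻ solution, sampled every 0.4 s for 14 s. Triplicates averaged; EC50 fitted.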

The source of these data is patent US20240199623A1 (ILDONG PHARMACEUTICAL CO., LTD., priority 2020, published 2024).

Where only a bound is given, the exact number is not on record here.

Sequence of human wild type-CFTR (P13569 whole entry): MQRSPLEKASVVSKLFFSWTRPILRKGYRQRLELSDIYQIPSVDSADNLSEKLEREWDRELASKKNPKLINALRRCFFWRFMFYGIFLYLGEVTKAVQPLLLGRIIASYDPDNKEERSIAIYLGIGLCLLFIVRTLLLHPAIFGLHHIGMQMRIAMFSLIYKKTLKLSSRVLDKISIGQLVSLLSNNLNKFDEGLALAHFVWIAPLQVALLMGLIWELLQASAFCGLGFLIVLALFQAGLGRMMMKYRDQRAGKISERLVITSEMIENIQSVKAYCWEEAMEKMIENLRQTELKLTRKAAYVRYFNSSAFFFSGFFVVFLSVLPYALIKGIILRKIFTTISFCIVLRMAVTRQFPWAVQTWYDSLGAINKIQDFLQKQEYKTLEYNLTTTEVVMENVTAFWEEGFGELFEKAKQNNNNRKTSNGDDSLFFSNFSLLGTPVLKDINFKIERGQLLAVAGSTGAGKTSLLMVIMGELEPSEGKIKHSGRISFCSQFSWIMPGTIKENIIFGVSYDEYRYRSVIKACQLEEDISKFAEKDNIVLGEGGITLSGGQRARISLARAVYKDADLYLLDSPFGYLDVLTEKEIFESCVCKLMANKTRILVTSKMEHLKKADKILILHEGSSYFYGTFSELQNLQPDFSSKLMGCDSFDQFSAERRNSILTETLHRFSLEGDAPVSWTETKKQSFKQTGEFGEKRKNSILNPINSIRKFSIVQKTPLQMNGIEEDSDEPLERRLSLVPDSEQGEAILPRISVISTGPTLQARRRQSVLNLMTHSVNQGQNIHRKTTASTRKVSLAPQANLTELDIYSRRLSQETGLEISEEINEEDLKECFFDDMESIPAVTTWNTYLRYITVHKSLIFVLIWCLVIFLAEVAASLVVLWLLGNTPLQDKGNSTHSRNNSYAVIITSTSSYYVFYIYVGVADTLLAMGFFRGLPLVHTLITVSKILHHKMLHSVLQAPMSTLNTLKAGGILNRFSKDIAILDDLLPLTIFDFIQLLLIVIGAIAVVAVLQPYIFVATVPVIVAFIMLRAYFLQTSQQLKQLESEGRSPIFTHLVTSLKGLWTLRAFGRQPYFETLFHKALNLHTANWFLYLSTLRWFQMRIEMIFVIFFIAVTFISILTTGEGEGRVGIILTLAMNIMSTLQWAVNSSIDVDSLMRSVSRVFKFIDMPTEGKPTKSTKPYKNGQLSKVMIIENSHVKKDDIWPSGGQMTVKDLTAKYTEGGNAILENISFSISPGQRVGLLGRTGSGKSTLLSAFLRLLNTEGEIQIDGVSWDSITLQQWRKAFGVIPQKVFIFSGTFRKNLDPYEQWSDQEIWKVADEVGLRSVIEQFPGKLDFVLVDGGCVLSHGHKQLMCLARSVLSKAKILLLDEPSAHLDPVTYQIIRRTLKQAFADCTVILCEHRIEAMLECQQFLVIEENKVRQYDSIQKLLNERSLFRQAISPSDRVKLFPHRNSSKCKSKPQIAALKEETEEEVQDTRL

Turning to `COc1ccc(-c2ccnc3cc(C(=O)NC45CC(C(=O)OCCCN6CCOCC6)(C4)C5)nn23)cc1OC` [Compound 199, 3-morpholinopropyl 3-(7-(3,4-dimethoxyphenyl)pyrazolo [1,5-a]pyrimidine-2-carboxamido)bicyclo[1.1.1] pentane-1-carboxylate], the EC50 fell in the range of 0.2 to 2 µM.

As for `COc1ccc(-c2ccnc3cc(C(=O)N[C@H]4CC[C@H](C(=O)NCCN5CCOCC5)CC4)nn23)cc1OC` [Compound 202, 7-(3,4-dimethoxyphenyl)-N-((1r,4r)-4-((2-morpholinoethyl)carbamoyl)cyclohexyl)pyrazolo [1,5-a]pyrimidine-2-carboxamide], the EC50 was no less than 2 µM.

For the compound `COc1ccc(-c2ccnc3cc(C(=O)N[C@H]4CC[C@H](C(=O)NCCCN5CCOCC5)CC4)nn23)cc1OC` [Compound 203, 7-(3,4-dimethoxyphenyl)-N-((1r,4r)-4-((3-morpholinopropyl)carbamoyl)cyclohexyl) pyrazolo[1,5-a]pyrimidine-2-carboxamide], the EC50 is no less than 2 µM.

`COc1ccc(-c2ccnc3cc(C(=O)N4CCN(Cc5ccccc5)[C@@H](C)C4)nn23)cc1OC` [Compound 206, (S)-(4-benzyl-3-methylpiperazin-1-yl) (7-(3,4-dimethoxyphenyl)pyrazolo [1,5-a]pyrimidin-2-yl)methanone]: the EC50 lay within 0.2 to 2 µM.

Consider `COc1ccc(-c2ccnc3cc(C(=O)N4CCN(Cc5ccccc5)C(C)(C)C4)nn23)cc1OC` [Compound 207, (4-benzyl-3,3-dimethylpiperazin-1-yl)(7-(3,4-dimethoxyphenyl)pyrazolo [1,5-a]pyrimidin-2-yl)methanone], for which the EC50 is 0.2 to 2 µM.

Regarding `COc1ccc(-c2ccnc3cc(C(=O)N4CCN(C)[C@@H](C)C4)nn23)cc1OC` [Compound 208, (S)-(7-(3,4-dimethoxyphenyl)pyrazolo [1,5-a]pyrimidin-2-yl)(3,4-dimethylpiperazin-1-yl)methanone], the EC50 is no less than 2 µM.

With `COc1ccc(-c2ccnc3cc(C(=O)N4CCN(C(=O)c5ccccc5)CC4)nn23)cc1OC` [Compound 209, (4-benzoylpiperazin-1-yl)(7-(3,4-dimethoxyphenyl)pyrazolo [1,5-a]pyrimidin-2-yl)methanone], the EC50 was less than 0.2 µM.

With `COc1ccc(-c2ccnc3cc(C(=O)N4CCN(C(=O)c5ccccc5)C(C)(C)C4)nn23)cc1OC` [Compound 211, (4-benzoyl-3,3-dimethylpiperazin-1-yl) (7-(3,4-dimethoxyphenyl)pyrazolo [1,5-a]pyrimidin-2-yl)methanone], the EC50 was in the range of 0.2 to 2 µM.

For `COc1ccc(-c2ccnc3cc(C(=O)Nc4ccc(C(=O)O)c(C)c4)nn23)cc1OC` [Compound 213, 4-(7-(3,4-dimethoxyphenyl)pyrazolo[1,5-a]pyrimidine-2-carboxamido)-2-methylbenzoic acid], the EC50 is no less than 2 µM.

Regarding `COc1ccc(-c2ccnc3cc(C(=O)Nc4ccc(C(=O)N5CCOCC5)c(C)c4)nn23)cc1OC` [Compound 214, 7-(3,4-dimethoxyphenyl)-N-(3-methyl-4-(morpholine-4-carbonyl)phenyl)pyrazolo[1,5-a]pyrimidine-2-carboxamide], the EC50 is no less than 2 µM.

In the case of `COc1ccc(-c2ccnc3cc(C(=O)Nc4ccc(C(=O)N5CCN(C)CC5)c(C)c4)nn23)cc1OC` [Compound 215, 7-(3,4-dimethoxyphenyl)-N-(3-methyl-4-(4-methylpiperazine-1-carbonyl)phenyl)pyrazolo [1,5-a]pyrimidine-2-carboxamide], the EC50 was no less than 2 µM.

For `COc1ccc(-c2ccnc3cc(C(=O)Nc4ccc(C(=O)O)c(OC)c4)nn23)cc1OC` [Compound 216, 4-(7-(3,4-dimethoxyphenyl)pyrazolo[1,5-a]pyrimidine-2-carboxamido)-2-methoxybenzoic acid], the EC50 is no less than 2 µM.

Regarding `COc1ccc(-c2ccnc3cc(C(=O)Nc4ccc(C(=O)N5CCOCC5)c(OC)c4)nn23)cc1OC` [Compound 217, 7-(3,4-dimethoxyphenyl)-N-(3-methoxy-4-(morpholine-4-carbonyl)phenyl)pyrazolo [1,5-a] pyrimidine-2-carboxamide], the EC50 was no less than 2 µM.

For `COc1ccc(-c2ccnc3cc(C(=O)Nc4ccc(C(=O)N5CCN(C)CC5)c(OC)c4)nn23)cc1OC` [Compound 218, 7-(3,4-dimethoxyphenyl)-N-(3-methoxy-4-(4-methylpiperazine-1-carbonyl)phenyl)pyrazolo [1,5-a]pyrimidine-2-carboxamide], the EC50 was no less than 2 µM.

Regarding `COc1ccc(-c2ccnc3cc(C(=O)Nc4ccc(C(=O)N(C)CCN(C)C)cc4)nn23)cc1OC` [Compound 219, 7-(3,4-dimethoxyphenyl)-N-(4-((2-(dimethylamino)ethyl) (methyl)carbamoyl)phenyl)pyrazolo[1,5-a] pyrimidine-2-carboxamide], the EC50 was no less than 2 µM.

With `COc1ccc(-c2ccnc3cc(C(=O)Nc4ccc(C(=O)NCCCN(C)C)cc4)nn23)cc1OC` [Compound 220, 7-(3,4-dimethoxyphenyl)-N-(4-((3-(dimethylamino)propyl)carbamoyl)phenyl) pyrazolo[1,5-a]pyrimidine-2-carboxamide], the EC50 is no less than 2 µM.

In the case of `CCN(CC)CCNC(=O)c1ccc(NC(=O)c2cc3nccc(-c4ccc(OC)c(OC)c4)n3n2)cc1` [Compound 221, N-(4-((2-(diethylamino)ethyl)carbamoyl)phenyl)-7-(3,4-dimethoxyphenyl)pyrazolo [1,5-a]pyrimidine-2-carboxamide], the EC50 was no less than 2 µM.

Take `CCN(CC)CCCNC(=O)c1ccc(NC(=O)c2cc3nccc(-c4ccc(OC)c(OC)c4)n3n2)cc1` [Compound 222, N-(4-((3-(diethylamino)propyl)carbamoyl)phenyl)-7-(3,4-dimethoxyphenyl) pyrazolo[1,5-a]pyrimidine-2-carboxamide]: the EC50 is no less than 2 µM.

As for `COc1ccc(-c2ccnc3cc(C(=O)Nc4ccc(C(=O)NCCN5CCCC5)cc4)nn23)cc1OC` [Compound 223, 7-(3,4-dimethoxyphenyl)-N-(4-((2-(pyrrolidin-1-yl)ethyl)carbamoyl)phenyl)pyrazolo[1,5-a]pyrimidine-2-carboxamide], the EC50 was no less than 2 µM.

Turning to `COc1ccc(-c2ccnc3cc(C(=O)Nc4ccc(C(=O)NCCCN5CCCC5)cc4)nn23)cc1OC` [Compound 224, 7-(3,4-dimethoxyphenyl)-N-(4-((3-(pyrrolidin-1-yl)propyl)carbamoyl)phenyl)pyrazolo[1,5-a]pyrimidine-2-carboxamide], the EC50 was no less than 2 µM.

In the case of `COc1ccc(-c2ccnc3cc(C(=O)Nc4ccc(C(=O)OCCN5CCCC5)cc4)nn23)cc1OC` [Compound 225, 2-(pyrrolidin-1-yl)ethyl 4-(7-(3,4-dimethoxyphenyl)pyrazolo [1,5-a]pyrimidine-2-carboxamido)benzoate], the EC50 is no less than 2 µM.

As for `COc1ccc(-c2ccnc3cc(C(=O)Nc4ccc(C(=O)OCCCN5CCCC5)cc4)nn23)cc1OC` [Compound 226, 3-(pyrrolidin-1-yl)propyl 4-(7-(3,4-dimethoxyphenyl)pyrazolo [1,5-a]pyrimidine-2-carboxamido)benzoate], the EC50 is no less than 2 µM.

For the compound `COc1ccc(-c2ccnc3cc(C(=O)Nc4ccc(OC(=O)CNC(=O)OC(C)(C)C)cc4)nn23)cc1OC` [Compound 227, 4-(7-(3,4-dimethoxyphenyl)pyrazolo[1,5-a]pyrimidine-2-carboxamido) phenyl(tert-butoxycarbonyl)glycinate], the EC50 was less than 0.2 µM.

Turning to `COc1ccc(-c2ccnc3cc(C(=O)Nc4ccc(OC(=O)[C@H](C)NC(=O)OC(C)(C)C)cc4)nn23)cc1OC` [Compound 228, 4-(7-(3,4-dimethoxyphenyl)pyrazolo[1,5-a]pyrimidine-2-carboxamido) phenyl(tert-butoxycarbonyl)-L-alaninate], the EC50 is less than 0.2 µM.

For `CCCCOc1ccc(NC(=O)c2cc3nccc(-c4ccc(OC)c(OC)c4)n3n2)cc1` [Compound 229, N-(4-butoxyphenyl)-7-(3,4-dimethoxyphenyl)pyrazolo [1,5-a]pyrimidine-2-carboxamide], the EC50 was less than 0.2 µM.

Consider `CCCOc1ccc(NC(=O)c2cc3nccc(-c4ccc(OC)c(OC)c4)n3n2)cc1` [Compound 230, 7-(3,4-dimethoxyphenyl)-N-(4-propoxyphenyl)pyrazolo [1,5-a]pyrimidine-2-carboxamide], for which the EC50 was less than 0.2 µM.

In the case of `COc1ccc(-c2ccnc3cc(C(=O)N4CCc5cc(C(=O)O)ccc54)nn23)cc1OC` [Compound 231, 1-(7-(3,4-dimethoxyphenyl)pyrazolo[1,5-a]pyrimidine-2-carbonyl) indoline-5-carboxylic acid], the EC50 is no less than 2 µM.

On to `COc1ccc(-c2ccnc3cc(C(=O)N4CCc5ccc(C(=O)O)cc54)nn23)cc1OC` [Compound 232, 1-(7-(3,4-dimethoxyphenyl)pyrazolo[1,5-a]pyrimidine-2-carbonyl) indoline-6-carboxylic acid], for which the EC50 was no less than 2 µM.

In the case of `COc1ccc(-c2ccnc3cc(C(=O)N4CCCc5cc(C(=O)O)ccc54)nn23)cc1OC` [Compound 233, 1-(7-(3,4-dimethoxyphenyl)pyrazolo[1,5-a]pyrimidine-2-carbonyl)-1,2,3,4-tetrahydroquinoline-6-carboxylic acid], the EC50 is no less than 2 µM.

For `COc1ccc(-c2ccnc3cc(C(=O)N(C)c4ccc(C(=O)O)cc4)nn23)cc1OC` [Compound 234, 4-(7-(3,4-dimethoxyphenyl)-N-methylpyrazolo[1,5-a]pyrimidine-2-carboxamido)benzoic acid], the EC50 was no less than 2 µM.

Regarding `COc1ccc(-c2ccnc3cc(C(=O)N4CCCc5cc(C(=O)N6CCN(C)CC6)ccc54)nn23)cc1OC` [Compound 235, (7-(3,4-dimethoxyphenyl)pyrazolo[1,5-a]pyrimidin-2-yl)(6-(4-methylpiperazine-1-carbonyl)-3,4-dihydroquinolin-1(2H)-yl)methanone], the EC50 is no less than 2 µM.
